# Results as given in paper PMC11992225, “Antibacterial compounds against non-growing and intracellular bacteria” (npj Antimicrobials and Resistance, 2025).
# Values joined by “and” are separate entries in the source; they are usually repeats but may differ in a detail not shown here. Equal values may be shown once.
# Key:
# [1] = test system: non-growing P. aeruginosa DSM1117; assay: Dose-dependent killing analysis (CFU spot-plating) of stationary-phase P. aeruginosa; type: cell-based, Pseudomonas aeruginosa; conditions: for log10(CFU/ml) after treatment / killing, average Δlog10(CFU/ml) / Killing: average Δlog10(CFU/ml) / log10(CFU/ml) after treatment, single replicates / log10(CFU/ml) of treated nongrowing bacteria (single replicates): P. aeruginosa; for log10(CFU/ml) after treatment: individual replicates; for Killing: average Δlog10(CFU/ml): vs 8.887 before treatment; for log10(CFU/ml) of treated nongrowing bacteria (single replicates): before treatment 8.887
# Method: The cultures were grown and treated for 24 h in 1:4 CA-MHB (pH 7.4).
# For survival analysis, bacteria were cultivated as described for the dose–response dilution-regrowth assay. Assays with UPEC were conducted at the CBCS screening facility using 96-well plates with a 200 μl sample volume, and compounds were dispensed using the Echo® (Labcyte) system. P. aeruginosa and S. aureus samples were treated according to the protocol used for the dilution-regrowth experiments. Treated samples were serially diluted 10-fold in PBS, and 10 μl drops were spot-plated onto rectangular LB agar plates using either a Beckman NXP robot (for UPEC) or an Integra VIAFLO96 electronic pipette (for P. aeruginosa and S. aureus). The LB agar plates were incubated overnight at 37 °C and scanned. Colonies were counted at the spots of the lowest dilution where individual colonies could be accurately distinguished. Each colony was manually marked on a separate image layer using the GNU Image Manipulation Program, and counted using NIST’s Integrated Colony Enumerator (NICE 1.4) software. The experiments were performed in three biological replicates.
# [2] = test system: non-growing S. aureus DSM2569; assay: Dose-dependent killing analysis (CFU spot-plating) of stationary-phase S. aureus; type: cell-based, Staphylococcus aureus; conditions: for log10(CFU/ml) after treatment / log10(CFU/ml) after treatment, single replicates / Killing: average Δlog10(CFU/ml) / killing, average Δlog10(CFU/ml) / log10(CFU/ml) of treated nongrowing bacteria (single replicates): S. aureus; for log10(CFU/ml) after treatment: individual replicates; for Killing: average Δlog10(CFU/ml): vs 9,097 before treatment; for log10(CFU/ml) of treated nongrowing bacteria (single replicates): before treatment 9,097
# Summary of the method: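 Stationary-phase S. aureus DSM2569 was grown and treated for 24 h in 1:4 CA-MHB at pH 7.4. Treated samples were serially diluted 10-fold in PBS and spot-plated on LB agar, which was incubated overnight at 37 °C. Survivors were counted as CFU over three biological replicates.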
# [3] = test system: non-growing S. aureus DSM2569; assay: Dilution-regrowth assay (OD600, start-growth-time) on stationary-phase S. aureus; type: cell-based, Staphylococcus aureus; conditions: S. aureus; for Regrowth, OD600 at 6h or 8h after dilution into drug-free medium: average; for EC50: Staphylococcus aureus, DSM2569, regrowth delay of non-growing bacteria, 1:4 CA-MHB pH 7.4, 24 h treatment, OD600 8 h after dilution, read-out: EC50; for Regrowth: OD600 after dilution into drug-free medium (mean): OD600 at 6h or 8h
# Summary of the method: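 Stationary-phase S. aureus cultures were grown and exposed to compound for 24 h in 1:4 CA-MHB (pH 7.4) at 37 °C in 96-well plates with 200 μl volume. After dilution into drug-free medium, regrowth was tracked in a plate reader at 37 °C with continuous shaking, reading OD600 every 20 min; EC50 came from five-parameter logistic fitting.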
# [4] = concentration 0.1, vs CFU before treatment
# [5] = concentration 0.5, vs CFU before treatment
# [6] = concentration 2.5, vs CFU before treatment
structure (smiles),measurement,setting,value
COc1c(N2C[C@@H]3CCCN[C@@H]3C2)c(F)cc2c(=O)c(C(=O)O)cn(C3CC3)c12 [Moxifloxacin],log10(CFU/ml) after treatment,[1]; concentration 0.1,8.699 log10(CFU/ml) and 8.778 log10(CFU/ml) and 8.477 log10(CFU/ml)
same,"killing, average Δlog10(CFU/ml)",[1]; [4],0.236 log10(CFU/ml)
same,log10(CFU/ml) after treatment,[1]; concentration 0.5,8.301 log10(CFU/ml) and 7.778 log10(CFU/ml) (2×)
same,"killing, average Δlog10(CFU/ml)",[1]; [5],0.935 log10(CFU/ml)
same,log10(CFU/ml) after treatment,[1]; concentration 2.5,5.845 log10(CFU/ml) and 6.301 log10(CFU/ml) and 4.699 log10(CFU/ml)
same,"killing, average Δlog10(CFU/ml)",[1]; [6],3.272 log10(CFU/ml)
same,log10(CFU/ml) after treatment,[1]; concentration 10,=<4 log10(CFU/ml) (2×) and 4.477 log10(CFU/ml)
same,"killing, average Δlog10(CFU/ml)","[1]; concentration 10, vs CFU before treatment",4.728 log10(CFU/ml)
same,log10(CFU/ml) after treatment,[2]; concentration 0.1,8.934 log10(CFU/ml) and 9.196 log10(CFU/ml) and 8.708 log10(CFU/ml)
same,log10(CFU/ml) after treatment,[2]; concentration 0.5,8.748 log10(CFU/ml) and 9.004 log10(CFU/ml) and 8.204 log10(CFU/ml)
same,log10(CFU/ml) after treatment,[2]; concentration 2.5,8.505 log10(CFU/ml) and 8.431 log10(CFU/ml) and 8.167 log10(CFU/ml)
same,log10(CFU/ml) after treatment,[2]; concentration 10,8.158 log10(CFU/ml) and 8.021 log10(CFU/ml) and 7.519 log10(CFU/ml)
same,"Regrowth, OD600 at 6h or 8h after dilution into drug-free medium",[3]; concentration 0.1,0.607
same,"Regrowth, OD600 at 6h or 8h after dilution into drug-free medium",[3]; concentration 0.5,0.484
same,"Regrowth, OD600 at 6h or 8h after dilution into drug-free medium",[3]; concentration 2.5,0.330
same,"Regrowth, OD600 at 6h or 8h after dilution into drug-free medium",[3]; concentration 10,0.150
same,EC50,[3],4820 nM
CCCCCCCCN=c1ccn(CCCCCCCCCCn2ccc(=NCCCCCCCC)cc2)cc1 [Octenidine],log10(CFU/ml) after treatment,[1]; concentration 0.1,10.204 log10(CFU/ml) and 9.447 log10(CFU/ml) and 9.415 log10(CFU/ml)
same,"killing, average Δlog10(CFU/ml)",[1]; [4],-0.305 log10(CFU/ml)
same,log10(CFU/ml) after treatment,[1]; concentration 0.5,9.146 log10(CFU/ml) and 9.322 log10(CFU/ml) and 9.255 log10(CFU/ml)
same,"killing, average Δlog10(CFU/ml)",[1]; [5],0.143 log10(CFU/ml)
same,log10(CFU/ml) after treatment,[1]; concentration 2.5,9.230 log10(CFU/ml) (2×) and 9.322 log10(CFU/ml)
same,"killing, average Δlog10(CFU/ml)",[1]; [6],0.123 log10(CFU/ml)
same,"killing, average Δlog10(CFU/ml)",[1]; drug concentration 10,0.517 log10(CFU/ml)
same,log10(CFU/ml) after treatment,[2]; concentration 0.1,8.505 log10(CFU/ml) and 8.653 log10(CFU/ml) and 8.820 log10(CFU/ml)
same,log10(CFU/ml) after treatment,[2]; concentration 0.5,8.114 log10(CFU/ml) and 8.380 log10(CFU/ml) and 8.643 log10(CFU/ml)
same,log10(CFU/ml) after treatment,[2]; concentration 2.5,6.322 log10(CFU/ml) and 7.690 log10(CFU/ml) and 8.255 log10(CFU/ml)
same,reduction of non-growing S. aureus,"[2]; at 10 µM, 24 h treatment",below the limit of detection
same,"Regrowth, OD600 at 6h or 8h after dilution into drug-free medium",[3]; concentration 0.1,0.879
same,"Regrowth, OD600 at 6h or 8h after dilution into drug-free medium",[3]; concentration 0.5,0.554
same,"Regrowth, OD600 at 6h or 8h after dilution into drug-free medium",[3]; concentration 2.5,0.478
same,"Regrowth, OD600 at 6h or 8h after dilution into drug-free medium (average)",[3]; drug concentration 10,0.086
same,EC50,[3],3300 nM
CO[C@H]1/C=C/O[C@@]2(C)Oc3c(C)c(O)c4c(c3C2=O)C2=NC3(CCN(CC(C)C)CC3)NC2=C(NC(=O)/C(C)=C\C=C\[C@H](C)[C@H](O)[C@@H](C)[C@@H](O)[C@@H](C)[C@H](OC(C)=O)[C@@H]1C)C4=O [Rifabutin],Killing: average Δlog10(CFU/ml),[1]; concentration 0.1,0.484 log10(CFU/ml)
same,"log10(CFU/ml) after treatment, single replicates",[1]; concentration 0.25,8.477 log10(CFU/ml) and 8.954 log10(CFU/ml) and 7.778 log10(CFU/ml)
same,Killing: average Δlog10(CFU/ml),[1]; concentration 0.5,0.158 log10(CFU/ml)
same,Killing: average Δlog10(CFU/ml),[1]; concentration 2.5,4.469 log10(CFU/ml)
same,"log10(CFU/ml) after treatment, single replicates",[1]; printed on the line of concentration 1,8.301 log10(CFU/ml) and 9.041 log10(CFU/ml) and 8.845 log10(CFU/ml)
same,"log10(CFU/ml) after treatment, single replicates",[1]; printed on the line of concentration 5,4.477 log10(CFU/ml) and 4.778 log10(CFU/ml) and =<4 log10(CFU/ml)
same,"reduction of bacterial counts, non-growing P. aeruginosa","[1]; at 2.5 µM, 1:4 CA-MHB pH 7.4, 24 h treatment",more than four
same,killing of non-growing P. aeruginosa,"[1]; at 2.5 µM, 24 h treatment",> 4 log10
same,"log10(CFU/ml) after treatment, single replicates",[2]; concentration 0.1,8.833 log10(CFU/ml) and 8.875 log10(CFU/ml) and 8.763 log10(CFU/ml)
same,Killing: average Δlog10(CFU/ml),[2]; concentration 0.1,0.273 log10(CFU/ml)
same,"log10(CFU/ml) after treatment, single replicates",[2]; concentration 0.5,8.869 log10(CFU/ml) and 8.996 log10(CFU/ml) and 8.079 log10(CFU/ml)
same,Killing: average Δlog10(CFU/ml),[2]; concentration 0.5,0.449 log10(CFU/ml)
same,"log10(CFU/ml) after treatment, single replicates",[2]; concentration 2.5,8.763 log10(CFU/ml) and 8.785 log10(CFU/ml) and 8.643 log10(CFU/ml)
same,Killing: average Δlog10(CFU/ml),[2]; concentration 2.5,0.366 log10(CFU/ml)
same,"log10(CFU/ml) after treatment, single replicates",[2]; concentration 10,8.778 log10(CFU/ml) and 8.806 log10(CFU/ml) and 8.756 log10(CFU/ml)
same,Killing: average Δlog10(CFU/ml),[2]; concentration 10,0.317 log10(CFU/ml)
same,Regrowth: OD600 after dilution into drug-free medium (mean),[3]; concentration 0.1,0.129
same,Regrowth: OD600 after dilution into drug-free medium (mean),[3]; concentration 0.5,0.135
same,Regrowth: OD600 after dilution into drug-free medium (mean),[3]; concentration 2.5,0.130
same,Regrowth: OD600 after dilution into drug-free medium (mean),[3]; concentration 10,0.096
same,EC50,[3],32 nM
O=C(O)c1cn(-c2ccc(F)cc2)c2cc(N3CCNCC3)c(F)cc2c1=O [Sarafloxacin],"killing, average Δlog10(CFU/ml)",[1]; drug concentration 0.1,0.295 log10(CFU/ml)
same,log10(CFU/ml) of treated nongrowing bacteria (single replicates),[1]; drug concentration 0.1,8.699 log10(CFU/ml) and 8.903 log10(CFU/ml) and 8.176 log10(CFU/ml)
same,"killing, average Δlog10(CFU/ml)",[1]; drug concentration 0.5,1.719 log10(CFU/ml)
same,log10(CFU/ml) of treated nongrowing bacteria (single replicates),[1]; drug concentration 0.5,7.301 log10(CFU/ml) and 6.602 log10(CFU/ml) and 7.602 log10(CFU/ml)
same,"killing, average Δlog10(CFU/ml)",[1]; drug concentration 2.5,3.802 log10(CFU/ml)
same,log10(CFU/ml) of treated nongrowing bacteria (single replicates),[1]; drug concentration 2.5,5.301 log10(CFU/ml) and 5.176 log10(CFU/ml) and 4.778 log10(CFU/ml)
same,"killing, average Δlog10(CFU/ml)",[1]; drug concentration 10,4.887 log10(CFU/ml)
same,log10(CFU/ml) of treated nongrowing bacteria (single replicates),[1]; drug concentration 10,=<4 log10(CFU/ml)
same,"killing, average Δlog10(CFU/ml)",[2]; drug concentration 0.1,0.203 log10(CFU/ml)
same,log10(CFU/ml) of treated nongrowing bacteria (single replicates),[2]; drug concentration 0.1,8.845 log10(CFU/ml) and 8.903 log10(CFU/ml) and 8.934 log10(CFU/ml)
same,"killing, average Δlog10(CFU/ml)",[2]; drug concentration 0.5,0.133 log10(CFU/ml)
same,log10(CFU/ml) of treated nongrowing bacteria (single replicates),[2]; drug concentration 0.5,8.869 log10(CFU/ml) and 9.111 log10(CFU/ml) and 8.914 log10(CFU/ml)
same,"killing, average Δlog10(CFU/ml)",[2]; drug concentration 2.5,0.565 log10(CFU/ml)
same,log10(CFU/ml) of treated nongrowing bacteria (single replicates),[2]; drug concentration 2.5,8.681 log10(CFU/ml) and 8.914 log10(CFU/ml) and 8.000 log10(CFU/ml)
same,"killing, average Δlog10(CFU/ml)",[2]; drug concentration 10,0.598 log10(CFU/ml)
same,log10(CFU/ml) of treated nongrowing bacteria (single replicates),[2]; drug concentration 10,8.462 log10(CFU/ml) and 8.653 log10(CFU/ml) and 8.380 log10(CFU/ml)
same,EC50,[3],662 nM
